Patent US9822136B2, “Chemical inhibitors of sebocyte function” (priority 2016, dated 2017)
Entries after “also recorded” stand apart in the source; their conditions may differ.

Experiments:
sebocytes [1] = experiment: 3H-thymidine incorporation into sebocytes; assay type: cell-based, human; settings: for activity at 10 µM: Homo sapiens, 3 h, uptake into sebocytes, NS = not significant
Description: (§1) The activities of 1-7 and 1-8 on an immortalized sebocyte cell line were examined in the laboratory of Prof Im Myung using methods previously described [Im et al. Epigallocatechin-3-gallate suppresses IGF-I-induced lipogenesis and cytokine expression in SZ95 sebocytes. J. Invest. Dermatol. 132, 2700-8 (2012)]. Proliferation of the sebocytes was measured using the MTT assay, by examination of micrographs of the cells in culture, and ^3H-thymidine incorporation. The effects of the test agents on lipogenesis were further studied by Oil Red O staining and analysis of the lipid composition of the cells. Studies were also conducted on signaling pathways for lipogenesis [PPAR and SREBP-1, Trivedi et al. Peroxisome proliferator-activated receptors increase human sebum production. J. Invest. Dermatol. 126, 2002-9 (2006)].
(§2) 1-7 and 1-8 are sensory cooling agents on the skin and activators [agonists] of the TRPM8 ion channel protein. […] The indicators used for direct comparison were sebocyte viability measured in the MTT assay and then the ^3H-thymidine incorporation assay.

zygomatic/forehead skin = experiment: Cooling sensation after application to zygomatic/forehead skin; assay type: in vivo, human; settings: for Sensory Quality / Duration / Onset: 20 mg/mL in distilled water; for Duration: offset minus onset; for Onset: time to reach 2 units of coolness; for Duration of localized cooling and refreshing sensations: forehead skin, 20 mg/mL, 0.08 to 0.15 mL
Description: When certain Dapa compounds are applied to the zygomatic and forehead skin, sensations of coolness/cold are felt and can be graded in intensity [Wei. 1-Di-isopropyl-phosphinoyl-alkanes as topical agents for the treatment of sensory discomfort. US 2015/0164924]. For example, one can rate the sensation as 0, 1, 2, or 3 with: 0 as no change; 1 as slight coolness, or cold; 2 as clear-cut signal of coolness or cold; and 3 as strong cooling or cold. The intervals for recording are 5 to 15 minutes, until at least two successive zeroes are obtained. The onset of drug action is taken as the time to reach 2 units of coolness intensity. The active compounds here, e.g, 1-7 produce cooling with 1 min after application. The duration of Dapa-compound action is defined as the offset time minus the onset time. The offset of drug action is defined here as the time when coolness intensity drops below 2, after previously surpassing 2 units.
Test compounds were applied to the skin of the forehead and zygomatic using cotton gauze (0.4 g, rectangular, 50 mm×60 mm; from CS-being, Daisan Cotton, Japan). The test compounds were used at a concentration of 20 mg/mL in distilled water. From the data shown above, it can be seen that, among these compounds, 1-7 and 1-8 evoked cool/cold on zygomatic/forehead skin.

sebocytes [2] = experiment: Sebocyte viability, MTT assay; assay type: cell-based, human; settings: for Sebocyte cell viability as % of controls (FIG. 3): concentrations in mM, 1-8 at 1 mM; for Activity relative to 1-8 in the MTT sebocyte assay: FIG. 4; for Sebocyte cell viability as % of controls (FIG. 4): at 0.10 μM
Description: as §1
The MTT assay is a colorimetric assay for cell viability. MTT [3-(4,5-dimethylthiazol-2-yl)-2-5-diphenyltetrazolium bromide], a yellow tetra-azole dye, is reduced to purple formazan in living cells by NADPH-dependent oxidoreductase enzymes. When the number of viable cells decreases the amount of enzymatic activity and purple color decreases and this can be measured with a spectrophotometer.
as §2

cloned hTRPM8 channel = target: T1, cloned hTRPM8 channel (Homo sapiens, UniProt Q7Z2W7); experiment: TRPM8 activation, FLIPR calcium assay in CHO cells; assay type: cell-based; settings: for Relative Potency to I-menthol: TRPM8 EC50 relative to I-menthol
T1 construct: host or cells: CHO cells
Description: The in vitro effects of test articles were first evaluated on cloned hTRPM8 channel. […] The test cells were Chinese Hamster Ovary (CHO) cells stably transfected with human TRPM8 cDNAs. […] Substances were evaluated at 8 concentrations (0.03 to 300 μM) with n=4 replicates per determination. For Fluorescence Imaging Plate Reader ([…]″) assay, cells were plated in 384-well black wall, flat clear-bottom microtiter plates (Type: BD Biocoat Poly-D-Lysine Multiwell Cell Culture Plate) at approximately 30,000 cells per well. Cells were incubated at 37° C. overnight to reach a near confluent monolayer appropriate for use in a fluorescence assay. The test procedure was to remove the growth media and to add 40 μL of HBPS containing Fluo-8 for 30 minutes at 37° C. 10 μL of test compound, vehicle, or control solutions in HBPS were then added to each well and read for 4 min using a Fluo-8 calcium kit and the […]″ instrument (Molecular Devices, Sunnyvale, California). […] J. Neurosci.
Concentration-response data were analysed via the FLIPR Control software that is supplied with the FLIPR System (MDS-AT) and fitted to a Hill equation of the following form: Response=Base+(Max−Base)/1+(xhalf/x)^rate, where: “Base” is the response at low concentrations of test compound; “Max” is the maximum response at high concentrations; “xhalf” is the EC50 (the concentration of test compound producing half-maximal activation); and “rate” is the Hill coefficient. Nonlinear least squares fits were made assuming a simple one-to-one binding model.

sebocytes [3] = experiment: IGF-1 stimulated lipogenesis in sebocytes (Oil Red O, thin-layer and gas chromatography of lipids); assay type: cell-based, human
Description: as §1, with “132, 2700-8 (2012)].” left out, “Dermatol.” for “Dermatol. 126, 2002-9 (2006)].”
J. Invest. Dermatol. […] Oil Red 0 [Sudan Red 5B] is a diazo dye used for staining neutral triglycerides and lipids on cells.

human sebocytes = experiment: Inhibition of sebocyte function in cultured human sebocytes (assay not specified); assay type: cell-based; settings: for Inhibition of sebocyte function: 0.1mM
Description: as §1, §2

[4] = tested on: forehead skin of human subjects; experiment: Sebum secretion of forehead skin (Sebumeter); assay type: in vivo; settings: 20 mg/mL on forehead, FIG. 2
Description: Sebum is an oily substance secreted by the sebaceous gland. These glands, attached to hair follicles, are abundant on the face and scalp. Increased secretion of sebum, for example during teenage years, and associated with androgen stimulation is associated with acne. […] Sebum secretion was measured here using a Sebumeter®, a standardized instrument based on a mat tape brought into contact with the skin, and then grease spot photometry [CK Electronic, Cologne, Germany].
In nine human subjects the baseline secretion of sebum was 188±19 μg/cm^2. […] This pharmacological effect has not been previously observed with Dapa-compounds such as 1-7. This was a new and unexpected observation.

TRPM8 and actin = experiment: Non-sebum cellular markers in sebocytes; assay type: cell-based, human
From the text: (§3) There are intracellular biochemical receptors and markers of sebocyte activation and sebum production. Peroxisome proliferator-activated receptors [PPAR] agonists increase sebum production in isolated sebocytes [Trivedi et al. (2006)]. This class of receptors is reduced after 1-8. Similarly, the […] which is linked to lipogenesis in sebocytes, was reduced by 1-8. These effects were specific to the markers of sebum production, as cellular receptors such as TRPM8 and actin were not affected by 1-8.

[5] = tested on: Peroxisome proliferator-activated receptors [PPAR]; experiment: Marker of sebum production in sebocytes: PPAR; assay type: cell-based, human
Description: as §1, §3

[6] = tested on: sterol-response binding protein [SBEP-1]; experiment: Marker of sebum production in sebocytes: SREBP-1; assay type: cell-based, human
Description: as §1, §3

T1 sequence (Q7Z2W7 whole entry): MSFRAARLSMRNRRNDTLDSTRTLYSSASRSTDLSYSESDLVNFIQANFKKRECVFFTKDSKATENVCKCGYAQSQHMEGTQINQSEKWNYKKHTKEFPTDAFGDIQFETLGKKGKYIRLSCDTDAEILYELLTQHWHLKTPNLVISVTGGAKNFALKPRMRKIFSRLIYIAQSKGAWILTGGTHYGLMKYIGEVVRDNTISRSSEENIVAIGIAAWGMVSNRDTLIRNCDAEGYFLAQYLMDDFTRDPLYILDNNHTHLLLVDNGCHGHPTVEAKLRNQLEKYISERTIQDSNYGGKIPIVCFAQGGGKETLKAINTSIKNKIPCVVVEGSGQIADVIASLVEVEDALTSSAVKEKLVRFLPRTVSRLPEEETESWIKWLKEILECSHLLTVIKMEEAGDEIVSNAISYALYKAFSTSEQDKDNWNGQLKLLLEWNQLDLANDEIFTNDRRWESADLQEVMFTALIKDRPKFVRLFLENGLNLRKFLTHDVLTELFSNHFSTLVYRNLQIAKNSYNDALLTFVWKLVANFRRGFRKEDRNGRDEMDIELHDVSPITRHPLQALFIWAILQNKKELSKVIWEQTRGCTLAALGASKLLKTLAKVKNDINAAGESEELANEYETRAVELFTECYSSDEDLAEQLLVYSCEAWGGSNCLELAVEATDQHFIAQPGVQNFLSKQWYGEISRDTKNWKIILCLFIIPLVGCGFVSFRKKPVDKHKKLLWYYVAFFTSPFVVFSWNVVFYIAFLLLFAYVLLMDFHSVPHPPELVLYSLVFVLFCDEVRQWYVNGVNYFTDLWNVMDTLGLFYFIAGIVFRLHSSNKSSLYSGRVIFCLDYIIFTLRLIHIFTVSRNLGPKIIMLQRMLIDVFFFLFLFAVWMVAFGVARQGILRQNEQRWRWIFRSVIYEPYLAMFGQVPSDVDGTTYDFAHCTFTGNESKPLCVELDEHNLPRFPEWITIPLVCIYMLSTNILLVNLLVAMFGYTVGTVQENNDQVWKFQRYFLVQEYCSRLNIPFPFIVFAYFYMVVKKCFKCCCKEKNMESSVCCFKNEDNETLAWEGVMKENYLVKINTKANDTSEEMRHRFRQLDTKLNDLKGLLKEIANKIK

Relative Potency to I-menthol (cloned hTRPM8 channel)	Structure (SMILES)	activity at 10 µM (sebocytes [1])	Sensory Quality (zygomatic/forehead skin)	Duration (zygomatic/forehead skin)	Onset (zygomatic/forehead skin)	other results
2.9	CCCCCCCCP(=O)(C(C)CC)C(C)CC (stereo not shown) [Code 2-8, 1-disec-butylphosphoryloctane]	≥ 90%	cold	5.6 h	5 min	Activity on sebocyte viability (structure-activity summary of Table 6) (sebocytes [2]): more activity than 2-6 or 2-7
1.6	CCCCCCP(=O)(C(C)C)C(C)C [Code 1-6, 1-diisopropylphosphorylhexane]		dynamic	1.3 h	~1 min	
4.0	CCCCCCCCCP(=O)(C(C)C)C(C)C [Code 1-9, 1-diisopropylphosphorylnonane]	≥ 85%	cool	2.0 h	~2 min	Activity on sebocyte viability (structure-activity summary of Table 6) (sebocytes [2]): active
0.7	CCCCCP(=O)(C(C)C)C(C)C [Code 1-5, 1-diisopropylphosphorylpentane]		dynamic	0.5 h	~1 min	
3.4	CCCCCCCP(=O)(C(C)CC)C(C)CC (stereo not shown) [Code 2-7, 1-disec-butylphosphorylheptane]	≥ 85%	cold	2.4 h	~2 min	Activity on sebocyte viability (structure-activity summary of Table 6) (sebocytes [2]): absence of activities
4.7	CCCCCCP(=O)(C(C)CC)C(C)CC (stereo not shown) [Code 2-6, 1-disec-butylphosphorylhexane]	≥ 100%	cold	1.5 h	~2 min	Activity on sebocyte viability (structure-activity summary of Table 6) (sebocytes [2]): absence of activities
	CC1=C(/C=C/C(C)=C/C=C/C(C)=C/C(=O)O)C(C)(C)CCC1 [trans-retinoic acid, reference compound]					IGF-1 increased lipids, gel staining (FIG. 5) (sebocytes [3]; IGF-1 stimulated sebocytes): inhibited
5.4	CCCCCCCP(=O)(C(C)C)C(C)C [Code 1-7, 1-diisopropylphosphorylheptane]	≥ 100%	dynamic-icy	3.2 h	~1 min	Onset of cooling after application (zygomatic/forehead skin): ≤ 1 min; Duration of localized cooling and refreshing sensations (zygomatic/forehead skin): several hours; Sebocyte cell viability as % of controls (FIG. 3) (sebocytes [2]): did not inhibit; Inhibition of sebocyte function (human sebocytes): not seen; Sebum secretion after topical application [4]: significantly decreased
5.4	CCCCCCCCP(=O)(C(C)C)C(C)C [Code 1-8, 1-diisopropylphosphoryloctane]	≥ 78%	cold-icy	4.0 h	~1 min	Duration of localized cooling and refreshing sensations (zygomatic/forehead skin): several hours; TRPM8 and actin levels (TRPM8 and actin): not affected; Photomicrographs of sebocyte cultures (sebocytes [2]; 0.1mM): patchy empty spaces; Sebocyte cell viability as % of controls (FIG. 3) (sebocytes [2]): strongly inhibited; PPAR level [5]: reduced; Inhibition of sebocyte function (human sebocytes): potent inhibitor; SBEP-1 level [6]: reduced; IGF-1 induced increase of lipids in cells (Oil Red O photomicrograph) (sebocytes [3]; IGF-1 50 ng/mL, 0.1mM): inhibited; Squalene and wax esters (thin-layer chromatography and gas-chromatography) (sebocytes [3]; IGF-1 stimulated sebocytes): selectively decreased
	CCCCCCCCCCCCP(=O)(C(C)C)C(C)C [Code 1-12, 1-diisopropylphosphoryldodecane]	~40%				Inhibition of 3H-thymidine incorporation into sebocytes (sebocytes [1]): clearly inhibited; Activity relative to 1-8 in the MTT sebocyte assay (sebocytes [2]): 10,000 x; Sebocyte cell viability as % of controls (FIG. 4) (sebocytes [2]): strongly inhibited; Concentration at which fully effective (human sebocytes; sebocytes in culture): 0.01 µM; Activity on TRPM8 (cloned hTRPM8 channel): low potency; also recorded: very low activity; Levels / production of squalene (thin layer chromatography, FIG. 5) (sebocytes [3]; IGF-1 stimulated sebocytes): effective; also recorded: lowers
0.3	CCCCP(=O)(C(C)CC)C(C)CC (stereo not shown) [Code 2-4, 1-disec-butylphosphorylbutane]		cool	0.3 h	~1 min	
2.2	CCCCCP(=O)(C(C)CC)C(C)CC (stereo not shown) [Code 2-5, 1-disec-butylphosphorylpentane]	≥ 98%	cool	1.1 h	~1 min	
	CCCCCCCCCCP(=O)(C(C)C)C(C)C [Code 1-10, 1-diisopropylphosphoryldecane]	≥ 100%				Activity relative to 1-8 in the MTT sebocyte assay (sebocytes [2]): 10,000 x; Sebocyte cell viability as % of controls (FIG. 4) (sebocytes [2]): strongly inhibited; Activity on TRPM8 (cloned hTRPM8 channel): low potency; Levels / production of squalene (thin layer chromatography, FIG. 5) (sebocytes [3]; IGF-1 stimulated sebocytes): lowers
	CC1=C(/C=C/C(C)=C/C=C/C(C)=C\C(=O)O)C(C)(C)CCC1 [cis-retinoic acid, reference compound]					IGF-1 increased lipids, gel staining (FIG. 5) (sebocytes [3]; IGF-1 stimulated sebocytes): inhibited
